In patent publication US7511144B2, “Reverse hydroxamic acid derivatives” (Kaken Pharmaceutical Co., Ltd., priority 2001, dated 2009):
Like-named read-outs stand apart in the source and are kept apart here.

Key:
Assay type in all cases: biochemical
[1] = target: T1, Human MMP8 (Homo sapiens, UniProt P22894); assay: MMP8 inhibition experiment; details: concentration required for 50% inhibition of enzyme activity; read-out: IC50 value MMP-8
T1 construct: purchased Calbiochem 444229
Experimental: MMP inhibition experiment may be carried out using a fluorescent synthetic substrate according to, for example, the methods of Bickett et al. (D. Mark Bickett et al., Anal. Biochem., 1993, 212, 58-64) and Nagase et al. (H. Nagase et al., J. Biol. Chem., 1994, 269, 20952-20957). The methods of inhibition experiments carried out for various MMPs are described below.
Human MMP8 (Calbiochem #444229) in amount of 90 μL (30 ng) was activated by mixing with 10 μL of 10 mM APMA, followed by reaction for 1 hour at 37° C. This enzyme solution in amount of 10 μL was diluted to 90 μL with the assay buffer A, which was added to 90 μL of […] fluorescent substrate (MOCAc-Pro-Leu-Gly-Leu-A2pr(Dnp)-Ala-Arg-NH2, Peptide Institute, Inc., #3163-v) prepared in the assay buffer B, followed by reaction for 5 hours at 37° C.

[2] = target: T2, Human MMP3 (Homo sapiens, UniProt P08254); assay: MMP3 inhibition experiment; details: concentration required for 50% inhibition of enzyme activity; read-out: IC50 value MMP-3
T2 construct: purchased Calbiochem 444217
T2 sequence (P08254 100-272 limits assumed): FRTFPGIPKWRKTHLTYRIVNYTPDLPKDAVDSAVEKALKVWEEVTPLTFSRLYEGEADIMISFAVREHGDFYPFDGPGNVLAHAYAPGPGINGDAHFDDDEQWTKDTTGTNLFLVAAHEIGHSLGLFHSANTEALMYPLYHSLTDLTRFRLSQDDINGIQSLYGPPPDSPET
Summary of the method: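 Recombinant human MMP3 (5 ng) mixed with fluorogenic peptide NFF-3 (20 μM stock solution) and incubated 5 hours at 37° C; cleavage followed by fluorescence of the quenched substrate.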

[3] = target: T3, Human MMP13 (Homo sapiens, UniProt P45452); assay: MMP13 inhibition experiment; details: concentration required for 50% inhibition of enzyme activity; read-out: IC50 value MMP-13
T3 construct: purchased Chemicon CC068
Experimental: Human MMP13 (Chemicon #CC068) in amount of 90 μL (200 ng) was activated by mixing with 10 μL of 10 mM APMA, followed by reaction for 1 hour at 37° C. This enzyme solution in amount of 0.6 μL was diluted to 90 μL with the assay buffer A, which was added to 90 μL of 20 μM fluorescent substrate (Dnp-Pro-Cha-Gly-Cys(Me)-His-Ala-Lys(Nma)-NH2) prepared in the assay buffer B, followed by reaction for 4 hours at 37° C.

[4] = target: T4, TACE (Homo sapiens, UniProt P78536); assay: TACE inhibition experiment (in vitro)
T4 construct: made in house; host or cells: mammalian cells or insect cells
T4 sequence (P78536 215-824): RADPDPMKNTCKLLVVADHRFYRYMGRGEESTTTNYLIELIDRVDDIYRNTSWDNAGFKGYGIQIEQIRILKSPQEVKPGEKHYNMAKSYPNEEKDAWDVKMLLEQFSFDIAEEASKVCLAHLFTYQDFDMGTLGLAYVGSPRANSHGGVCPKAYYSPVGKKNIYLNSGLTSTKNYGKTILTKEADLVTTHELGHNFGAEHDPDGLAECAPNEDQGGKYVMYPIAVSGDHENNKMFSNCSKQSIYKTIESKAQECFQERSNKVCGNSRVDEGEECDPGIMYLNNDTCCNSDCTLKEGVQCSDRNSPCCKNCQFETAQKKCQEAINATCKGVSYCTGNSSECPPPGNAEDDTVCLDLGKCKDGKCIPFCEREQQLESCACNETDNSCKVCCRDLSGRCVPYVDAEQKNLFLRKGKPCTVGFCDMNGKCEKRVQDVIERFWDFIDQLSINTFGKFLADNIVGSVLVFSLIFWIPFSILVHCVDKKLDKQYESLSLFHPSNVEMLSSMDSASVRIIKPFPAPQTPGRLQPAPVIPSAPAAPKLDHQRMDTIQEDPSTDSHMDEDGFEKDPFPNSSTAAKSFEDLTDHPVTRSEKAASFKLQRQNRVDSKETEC

[5] = target: T5, Human MMP1 (Homo sapiens, UniProt P03956); assay: MMP1 inhibition experiment; details: read-out: IC50 value MMP-1
T5 construct: purchased Calbiochem 444208
T5 sequence (P03956 100-469): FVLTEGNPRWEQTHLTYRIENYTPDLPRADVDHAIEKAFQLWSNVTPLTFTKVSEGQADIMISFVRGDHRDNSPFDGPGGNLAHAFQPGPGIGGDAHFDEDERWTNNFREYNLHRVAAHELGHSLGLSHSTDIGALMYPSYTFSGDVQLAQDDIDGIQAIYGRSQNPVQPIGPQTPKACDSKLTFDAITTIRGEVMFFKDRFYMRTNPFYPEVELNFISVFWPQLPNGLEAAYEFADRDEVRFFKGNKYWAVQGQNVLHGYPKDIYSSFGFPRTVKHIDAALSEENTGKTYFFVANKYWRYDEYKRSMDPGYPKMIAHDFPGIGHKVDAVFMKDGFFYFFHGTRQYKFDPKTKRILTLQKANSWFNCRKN
Experimental: This enzyme solution in amount of 10 μL was diluted to 90 μL with the assay buffer A, which was added to 90 μL of 20 μM fluorescent substrate (Dnp-Pro-Cha(β-cyclohexylalanyl)-Gly-Cys(Me)-His-Ala-Lys(Nma)-NH2) prepared in the assay buffer B, followed by reaction for 5 hours at 37° C.

[6] = target: T6, Human MMP17 (Homo sapiens, UniProt Q9ULZ9); assay: MMP17 inhibition test; details: concentration required for 50% inhibition of enzyme activity; read-out: IC50 value MMP-17
T6 construct: purchased Calbiochem 475940
T6 sequence (Q9ULZ9 126-300 limits assumed): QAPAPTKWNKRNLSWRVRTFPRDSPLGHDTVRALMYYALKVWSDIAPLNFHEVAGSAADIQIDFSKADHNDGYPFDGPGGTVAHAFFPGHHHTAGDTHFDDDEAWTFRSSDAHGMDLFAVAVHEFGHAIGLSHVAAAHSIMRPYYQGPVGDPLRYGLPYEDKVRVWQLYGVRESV

[7] = target: T7, Human MMP2 (Homo sapiens, UniProt P08253); assay: MMP2 inhibition experiment; details: concentration required for 50% inhibition of enzyme activity; read-out: IC50 value MMP-2
T7 construct: purchased Calbiochem 444213
T7 sequence (P08253 110-660): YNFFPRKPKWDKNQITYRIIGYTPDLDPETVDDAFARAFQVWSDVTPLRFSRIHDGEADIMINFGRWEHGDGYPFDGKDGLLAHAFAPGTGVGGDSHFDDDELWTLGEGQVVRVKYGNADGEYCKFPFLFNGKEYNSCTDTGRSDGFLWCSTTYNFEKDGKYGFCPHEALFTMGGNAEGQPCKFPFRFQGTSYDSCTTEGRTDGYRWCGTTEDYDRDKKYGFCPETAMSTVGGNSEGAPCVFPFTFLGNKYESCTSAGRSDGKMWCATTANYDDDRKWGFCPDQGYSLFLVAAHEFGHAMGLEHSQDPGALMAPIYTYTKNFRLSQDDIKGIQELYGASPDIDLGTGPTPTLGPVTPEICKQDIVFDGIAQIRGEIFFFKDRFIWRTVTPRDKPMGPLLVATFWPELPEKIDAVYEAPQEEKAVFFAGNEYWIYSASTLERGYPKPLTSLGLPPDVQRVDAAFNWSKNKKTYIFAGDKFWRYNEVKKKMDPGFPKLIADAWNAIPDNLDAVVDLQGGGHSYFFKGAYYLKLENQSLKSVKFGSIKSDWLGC
Experimental: This enzyme solution in amount of 10 μL was diluted to 90 μL with the assay buffer A, which was added to 90 μL of 20 μM fluorescent substrate (MOCAc((7-methoxycoumarin-4-yl)acetyl)-Pro-Leu-Gly-Leu-A2pr(Dnp)-Ala-Arg-NH2, Peptide Institute, Inc., #3163-v) prepared in the assay buffer B, followed by reaction for 5 hours at 37° C.

[8] = target: T8, Human MMP9 (Homo sapiens, UniProt P14780); assay: MMP9 inhibition experiment; details: read-out: IC50 value MMP-9
T8 construct: purchased Calbiochem 444231
T8 sequence (P14780 107-707 limits assumed): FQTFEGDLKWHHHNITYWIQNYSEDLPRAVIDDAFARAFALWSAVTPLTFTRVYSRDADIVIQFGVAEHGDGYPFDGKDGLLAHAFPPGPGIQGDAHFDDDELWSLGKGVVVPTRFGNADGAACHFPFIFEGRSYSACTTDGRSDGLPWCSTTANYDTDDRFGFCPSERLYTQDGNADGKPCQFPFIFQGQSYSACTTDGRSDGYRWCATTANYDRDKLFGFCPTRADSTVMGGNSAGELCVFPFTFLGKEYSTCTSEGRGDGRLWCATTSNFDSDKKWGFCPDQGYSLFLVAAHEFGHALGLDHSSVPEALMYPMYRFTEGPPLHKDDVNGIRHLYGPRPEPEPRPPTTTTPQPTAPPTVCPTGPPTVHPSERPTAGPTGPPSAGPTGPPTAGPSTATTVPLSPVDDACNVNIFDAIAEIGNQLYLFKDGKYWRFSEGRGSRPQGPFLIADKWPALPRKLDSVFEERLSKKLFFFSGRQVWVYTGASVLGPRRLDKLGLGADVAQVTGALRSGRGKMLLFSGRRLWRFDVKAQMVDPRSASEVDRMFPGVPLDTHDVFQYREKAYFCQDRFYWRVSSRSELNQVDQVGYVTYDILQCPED
Experimental: This enzyme solution in amount of 1 μL was diluted to 90 μL with the assay buffer A, which was added to 90 μL of 20 μM fluorescent substrate (Dnp-Pro-Cha-Gly-Cys(Me)-His-Ala-Lys(Nma)-NH2) prepared in the assay buffer B, followed by reaction for 4 hours at 37° C.

[9] = target: T9, Human MMP14 (Homo sapiens, UniProt P50281); assay: MMP14 inhibition experiment; details: concentration required for 50% inhibition of enzyme activity; read-out: IC50 value MMP-14
T9 construct: purchased Biogenesis or Calbiochem 5980-1461 or 475935
Summary of the method: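 Fluorescence assay: substrate Dnp-Pro-Cha-Gly-Cys(Me)-His-Ala-Lys(Nma)-NH2 (20 μM before equal-volume mixing) incubated at 37° C for 5 hours with 4 ng human MMP14.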

[10] = concentration required for 50% inhibition of enzyme activity

T1 sequence (P22894 101-467): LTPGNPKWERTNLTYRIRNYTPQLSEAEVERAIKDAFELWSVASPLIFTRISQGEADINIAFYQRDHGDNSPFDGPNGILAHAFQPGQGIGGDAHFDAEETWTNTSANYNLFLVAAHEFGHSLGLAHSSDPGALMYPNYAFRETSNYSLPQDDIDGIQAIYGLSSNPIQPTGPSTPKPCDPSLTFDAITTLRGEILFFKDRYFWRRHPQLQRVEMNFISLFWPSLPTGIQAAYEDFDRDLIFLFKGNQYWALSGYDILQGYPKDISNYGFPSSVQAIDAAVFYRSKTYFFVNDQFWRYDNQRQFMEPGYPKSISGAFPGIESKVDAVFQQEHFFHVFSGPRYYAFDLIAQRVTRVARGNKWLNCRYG

SMILES | IC50 [1] | IC50 [2] | IC50 [3] | IC50 [4, 10] | IC50 [5] | IC50 [6] | IC50 [7] | IC50 [8, 10] | IC50 [9] | IC50 [4] | IC50 [8] | IC50 [5, 10]
Cc1cc(COc2ccc(S(=O)(=O)CC(C=C3CCSCC3)N(O)C=O)cc2)c2ccccc2n1 (centres unmarked) [Example I-17, N-Hydroxy-N-{2-[4-(2-methylquinolin-4-ylmethoxy)benzenesulfonyl]-1-(tetrahydrothiopyran-4-ylidenemethyl)ethyl}formamide] | > 100 µM | 10 µM | 25 µM | 0.003 µM | 43 µM | 4 µM | 55 µM | 31 µM | 50 µM | – | – | –
COCOC1CCC(C)(C(CS(=O)(=O)c2ccc(OCc3cc(C)nc4ccccc34)cc2)N(O)C=O)CC1 (centres unmarked) [Example I-128] | 25 µM | 1.3 µM | 22 µM | – | > 100 µM | 0.54 µM | 43 µM | – | 50 µM | 0.032 µM | > 100 µM | –
Cc1cccc(CCC(CS(=O)(=O)c2ccc(OCc3cc(C)nc4ccccc34)cc2)N(O)C=O)c1 (centres unmarked) [Example I-39] | > 100 µM | 24 µM | 26 µM | – | 73 µM | 25 µM | 30 µM | – | 43 µM | 0.21 µM | 36 µM | –
Cc1cc(COc2ccc(S(=O)(=O)CC(C3CCCN(C(=O)OC(C)(C)C)C3)N(O)C=O)cc2)c2ccccc2n1 (centres unmarked) [Example I-72] | 10 µM | 0.7 µM | 1.4 µM | – | 90 µM | 0.28 µM | 2 µM | – | 48 µM | 0.024 µM | 64 µM | –
COCC(=O)N1CCN(CC(CS(=O)(=O)c2ccc(OCc3cc(C)nc4ccccc34)cc2)N(O)C=O)CC1 (centres unmarked) [Example I-53] | 25 µM | 0.6 µM | 40 µM | – | > 100 µM | 0.4 µM | 13 µM | – | > 100 µM | 0.01 µM | > 100 µM | –
COCc1cc(COc2ccc(S(=O)(=O)CC(C=C3CCC(=O)CC3)N(O)C=O)cc2)cc(C)n1 (centres unmarked) [Example I-119] | 60 µM | > 100 µM | 60 µM | – | > 100 µM | 58 µM | 50 µM | – | > 100 µM | 0.32 µM | > 100 µM | –
O=CON=C1CCC(=CC(CS(=O)(=O)c2ccc(OCc3ccc4ccccc4n3)cc2)N(O)C=O)CC1 (centres unmarked) [Example I-85] | 70 µM | 50 µM | 22 µM | – | > 100 µM | 31 µM | 4.5 µM | – | 60 µM | 0.36 µM | 56 µM | –
O=CN(O)C(C=C1CCC2(CC1)OCCO2)CS(=O)(=O)c1ccc(OCc2ccc3ccccc3n2)cc1 (centres unmarked) [Example I-83] | > 100 µM | 37 µM | 23 µM | – | > 100 µM | 36 µM | 7 µM | – | 55 µM | 2.5 µM | 53 µM | –
Cc1ccc(CCC(CS(=O)(=O)c2ccc(OCc3cc(C)nc4ccccc34)cc2)N(O)C=O)cc1 (centres unmarked) [Example I-36] | 68 µM | 9.7 µM | 20 µM | – | 70 µM | 20 µM | 6 µM | – | 37 µM | 0.17 µM | 43 µM | –
Cc1ccc2nc(C)cc(COc3ccc(S(=O)(=O)CC(C=C4CCOCC4)N(O)C=O)cc3)c2c1 (centres unmarked) [Example I-74, N-{2-[4-(2.6-dimethylquinolin-4-ylmethoxy)benzenesulfonyl]-1-(tetrahydropyran-4-ylidenemethyl)ethyl}-N-hydroxyformamide] | 65 µM | 6 µM | 20 µM | – | 70 µM | 10 µM | 41 µM | – | 60 µM | 0.005 µM | 50 µM | –
Cc1cc(COc2ccc(S(=O)(=O)CC(CC3CCOCC3)N(O)C=O)cc2)c2ccccc2n1 (centres unmarked) [Example I-29] | 19 µM | 1.8 µM | 18 µM | – | > 100 µM | 0.96 µM | 19 µM | – | 90 µM | 0.0076 µM | > 100 µM | –
CCC(CC)C(=O)N1CCC(C(CS(=O)(=O)c2ccc(OCc3cc(C)nc4ccccc34)cc2)N(O)C=O)CC1 (centres unmarked) [Example I-132] | 8 µM | 0.21 µM | 2.2 µM | – | 53 µM | 0.085 µM | 2.2 µM | – | 16 µM | 0.023 µM | 40 µM | –
Cc1cc(COc2ccc(S(=O)(=O)CC(c3ccccc3C)N(O)C=O)cc2)c2cc(F)ccc2n1 (centres unmarked) [Example I-79, N-{2-[4-(6-fluoro-2-methylquinolin-4-ylmethoxy)benzenesulfonyl]-1-o-tolylethyl}-N-hydroxyformamide] | 73 µM | 2.9 µM | 20 µM | – | 68 µM | 6.2 µM | 58 µM | – | 46 µM | 0.015 µM | 70 µM | –
CCC(CC)C(=O)N1CCC(=CC(CS(=O)(=O)c2ccc(OCc3cc(C)nc4ccccc34)cc2)N(O)C=O)C(C)C1 (centres unmarked) [Example I-63] | 60 µM | 2.4 µM | 32 µM | – | 64 µM | 2.2 µM | 30 µM | – | 65 µM | 0.002 µM | 75 µM | –
CC(=O)N1CCC(=CC(CS(=O)(=O)c2ccc(OCc3cc(C)nc4ccccc34)cc2)N(O)C=O)CC1 (centres unmarked) [Example I-41] | 50 µM | 4.8 µM | 50 µM | – | > 100 µM | 3.7 µM | 41 µM | – | > 100 µM | 0.0031 µM | > 100 µM | –
Cc1cc(COc2ccc(S(=O)(=O)CC(C=C3CCOCC3)N(O)C=O)cc2)c2ccccc2n1 (single isomer, unassigned) [Example I-34, N-hydroxy-N-{2-[4-(2-methylquinolin-4-ylmethoxy)benzenesulfonyl]-1-(tetrahydropyran-4-ylidenemethyl)ethyl}formamide] | > 100 µM | > 100 µM | > 100 µM | – | – | 40 µM | > 100 µM | > 100 µM | > 100 µM | – | – | > 100 µM
